As a reminder, the IC50 is the concentration at which inhibition is half-maximal. The Ki is the equilibrium dissociation constant of an inhibitor or competing ligand from its target.

Assay [1] addresses T1, Porcine pancreatic lipase, type II (Sus scrofa, UniProt P00591).
T1 construct: purchased Merck Millipore / Sigma-Aldrich L-3126
T1 sequence (P00591 1-450): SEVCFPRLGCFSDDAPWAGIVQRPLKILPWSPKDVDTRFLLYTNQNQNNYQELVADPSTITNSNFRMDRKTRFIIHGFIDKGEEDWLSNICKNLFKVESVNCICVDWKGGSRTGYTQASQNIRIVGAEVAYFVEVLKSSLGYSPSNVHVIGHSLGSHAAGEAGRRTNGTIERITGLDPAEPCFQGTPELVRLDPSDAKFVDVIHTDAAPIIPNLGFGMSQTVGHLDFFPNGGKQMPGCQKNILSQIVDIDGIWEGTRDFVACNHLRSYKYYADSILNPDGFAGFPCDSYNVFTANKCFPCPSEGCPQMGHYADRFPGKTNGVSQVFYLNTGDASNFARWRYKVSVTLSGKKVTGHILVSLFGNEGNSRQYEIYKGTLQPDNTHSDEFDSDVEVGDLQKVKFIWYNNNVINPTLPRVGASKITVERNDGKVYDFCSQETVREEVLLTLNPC
Put plainly: Pancreatic lipase inhibition assay (spectrophotometric, p-NPP substrate). It is filed as biochemical.
Experimental: Following the experimental conditions described in the previous study [28], the assay was performed as follows: each sample solution, composed of 50 mM Tris-HCl buffer at pH 8.0, tested compound, and 10 mg/ml pancreatic lipase enzyme, was sequentially added. The resulting mixture was thoroughly mixed and incubated for 10 minutes at 37°C. Subsequently, the p-NPP substrate solution was added and mixed well. The mixture was then further incubated for 7 minutes at 37°C. The absorbance of the solution was measured at 405 nm. For the control solution, the same procedure was followed, replacing the tested compound with 10% DMSO. The blank solution was prepared with no enzyme added.
The percentage of pancreatic lipase inhibition (I%) was calculated using the following equation:(1) I%=∆A0−∆A/A0×100.
Here, ∆A0 represents the absorbance difference between the control and the blank, ∆A represents the absorbance difference between the sample and the blank, and A0 represents the absorbance of the control.
A linear regression equation was constructed to establish the correlation between the logarithm of the concentration (µM) of the tested substances and the percentage of pancreatic lipase inhibition. From this equation, the IC50 value, which indicates the concentration of the compound required for 50% inhibition, was determined.

For assay [2], the target named is T1, Porcine pancreatic lipase, type II. Kind of assay: Enzymatic inhibition kinetic analysis (Michealis–Menten and Lineweaver–Burk plots). It is filed as biochemical. Particulars: for Mode of enzyme inhibition: Michealis–Menten and Lineweaver–Burk plots; for Vmax in the presence of inhibitor: p-NPP 12.5-200 μM, from Michealis–Menten plots. The method, then: Ten semisynthetic flavonoid derivatives, 2 flavanones and 8 flavones (Figure 1), reported in the previous works were used in this study.
The substrate p-NPP was examined at five distinct concentrations ranging from 12.5 μM to 200 μM. The flavonoid derivative was assessed for its lipase inhibition capacity over time at concentrations of 15 μM and 30 μM. Simultaneously, a negative control sample without the inhibitor was utilized for comparison. […] Inhibition constants (Ki) and maximum velocity (Vmax) were derived from the Michealis–Menten plots, and the mode of enzyme inhibition was elucidated through the Lineweaver–Burk plots. All parameters and graphical representations were calculated and generated using GraphPad Prism 8.4.3 software.

On the set-up of assay [3]: method as in PMID 11261530. Particulars: dietary contexts, clinical use; cited from earlier work.
[4] abbreviates: p-NPP substrate, 50 mM Tris-HCl pH 8.0, 37°C, absorbance 405 nm, read-out: IC50 for pancreatic lipase.

Where two headings read alike, the source gives them in different places.

For the molecule `CCOc1cc2oc(-c3ccccc3)cc(=O)c2c(O)c1OCC` [F04], the 50% inhibitory concentration (IC50) in assay [1] was greater than 500 µM.

For the molecule `COc1cc(O)c2c(c1)OC(c1ccc(O)cc1)CC2=O` (stereo not shown) [F01, 5-hydroxy-2-(4-hydroxyphenyl)-7-methoxychroman-4-one], in assay [1] (setting [4]), the concentration for half-maximal inhibition (IC50) is 17.7 ± 1.43 µM. Besides, in assay [2], the “Mode of enzyme inhibition” value is given as “competitive” and the “Vmax in the presence of inhibitor” value is reported as 0.03272 ΔA·min^−1. In assay [2] (read-out: Inhibition constant (Ki)), the Ki was 7.16 µM.

In the case of `CCC(=O)Oc1cc2oc(-c3ccccc3)cc(=O)c2c(OC(=O)CC)c1OC(=O)CC` [F07], the 50% inhibitory concentration (IC50) in assay [1] is greater than 500 µM.

The molecule `C=CCOc1cc2oc(-c3ccccc3)cc(=O)c2c(O)c1OCC=C` [F05] showed a half-inhibitory concentration (IC50) in assay [1] of 341 ± 24.1 µM.

As for `COc1cc(O)c2c(=O)cc(-c3ccc(OC)c(OC)c3)oc2c1` [F09], the IC50 in assay [1] (setting [4]) worked out at 465 ± 11.8 µM.

Turning to `COc1cc2oc(-c3ccccc3)cc(=O)c2c(O)c1OC` [F03], in assay [1] (setting [4]), the IC50 is greater than 500 µM.

The molecule `CCOc1cc(O)c2c(=O)cc(-c3ccc(OC)c(OCC)c3)oc2c1` [F10] registered a half-inhibitory concentration (IC50) in assay [1] greater than 500 µM.

On to `CCCCCCCCCCC[C@@H](C[C@@H]1OC(=O)[C@H]1CCCCCC)OC(=O)[C@H](CC(C)C)NC=O` [Orlistat, reference compound], for which, in assay [3], the “Reduction of fat absorption” value was “approximately 30%”. Further, in assay [2], the “Mode of enzyme inhibition” value is recorded as “competitive” and the “Vmax in the presence of inhibitor” value was 0.03295 ΔA·min^−1.

Regarding `CC(=O)Oc1cc2oc(-c3ccccc3)cc(=O)c2c(OC(C)=O)c1OC(C)=O` [F06], the concentration for half-maximal inhibition (IC50) in assay [1] is greater than 500 µM.

As to `COc1cc(OC)c2c(=O)cc(-c3ccc(OC)c(OC)c3)oc2c1` [F08], in assay [1], the 50% inhibitory concentration (IC50) turned out to be 270 ± 14.6 µM.

As to `COc1ccc(C2CC(=O)c3c(O)cc(OC)cc3O2)cc1` (stereo not shown) [F02], in assay [1] (setting [4]), the half-inhibitory concentration (IC50) is 76.2 ± 3.22 µM.

These data come from PMC10830309, “Inhibition of Pancreatic Lipase by Flavonoid Derivatives: In Vitro and In Silico Investigations” (Advances in Pharmacological and Pharmaceutical Sciences, 2024).
